US12173088B2, “Anti-microbial peptides” (priority 2018, dated 2024)
Converted amounts (≈) assume the structure as drawn. Square brackets hold non-standard residues; d marks the D form. Peptide text beside a SMILES is read from it. Orn = NCCC[C@H](N)C(=O)O

Assays:
[1] = tested on: human red blood cells (hRBCs); assay: Hemolytic assay; format: cell-based
Procedure: Briefly, human red blood cells (hRBCs) were washed three times with phosphate buffer saline (PBS) and diluted to a 2% solution (v/v). After peptide treatment, incubation at 37° C. for one hour, and centrifugation at 5000 rpm for 10 minutes, aliquots of the supernatant were carefully transferred to a fresh 96-well microplate. The amount of hemoglobin released was measured at 545 nm. The percent lysis was calculated by assuming 100% release when human blood cells were treated with 2% Triton™ X-100, and 0% release when incubated with PBS buffer. The peptide concentration that caused 50% lysis of hRBCs is defined as HL50. The cell selectivity index (CSI) was calculated as the ratio between HL50 and MIC of the corresponding peptide against a select pathogenic species.
Hemolytic assays of peptides were performed as described (Mishra, et al. (2017) Acta Biomater., 49:316-328). Briefly, human red blood cells (hRBCs) obtained from UNMC Blood Bank. The blood washed 3× with isotonic saline (0.9% NaCl) and diluted to 2% blood cells (v/v). Peptide horine and verine at various concentrations were added into the 2% blood cells and incubated at 37° C. for 1 hour. Post incubation the plates were spun at 2000 rpm for 10 minutes, aliquots of the supernatant were carefully transferred to a fresh 96-well microplate. The amount of cells lysed is proportional to the hemoglobin released and measured at 545 nm using a ChroMate® microplate reader. The percent lysis was calculated by assuming 100% release when human blood cells were treated with 1% Triton™ X-100, and 0% release when incubated with PBS. The peptide concentration that caused 50% lysis of hRBCs is defined as HL50.

K. pneumoniae ATCC 13883 = format: cell-based, Klebsiella pneumoniae; settings: ATCC 13883
Procedure: (§1) The antibacterial activity of peptides was evaluated using a standard broth microdilution protocol with minor modifications as described (Mishra, et al. (2012) J. Am. Chem. Soc., 134:12426-12429). In brief, logarithmic phase bacterial cultures (i.e., optical density at 600 nm≈0.5) were diluted to OD600 0.001 and partitioned into a 96-well polystyrene microplate at 90 μL per well. After treatment with 10 μL of peptide solutions two fold diluted to various concentrations, microplates were incubated at 37° C. overnight and read on a ChroMate® 4300 Microplate Reader at 630 nm (GMI, Ramsey, MN). […] To study the influence of medium conditions on the antimicrobial activity of peptides against S. aureus USA300, up to 200 mM sodium chloride (NaCl), 2 mM of calcium chloride, 5-10% of human serum, mouse plasma, fluid, or supernatants of tissue homogenates were included into the assays.
(§2) The bacterial strains used include the Gram-positive bacteria methicillin-resistant Staphylococcus aureus USA300, Enterococcus faecium V286-17 (VRE), S. aureus M838-17 (MRSA) and Gram-negative bacteria E. coli E423-17, E416-7 (ampC), P. aeruginosa E411-17, PA01, K. pneumoniae E406-17, ATCC13883, and A. baumannii B26-16. Bacteria were cultivated in tryptic soy broth (TSB) from BD Bioscience.
(§3) The antibacterial activity of peptides was evaluated using a standard broth microdilution protocol with minor modifications (Mishra, et al. (2017) Acta Biomater., 49:316-328). In brief, logarithmic phase bacterial cultures (i.e., optical density at 600 nm≈0.5) were diluted to 0.001 OD and aliquoted 90 μL per well into a 96-well polystyrene microplate. Added 10 μL peptides per well with various concentrations, plates were incubated at 37° C., overnight. Post incubation the plates are read at 630 nm using a ChroMate® Microplate Reader (GMI). […] To study the influence of medium conditions on the antimicrobial activity of peptides against S. aureus USA300 at different pHs (6.8, 7.2, and 8.0), 150 mM sodium chloride (NaCl), 5-10% of human serum, mouse plasma, and peritoneal fluid were included into the assays.

P. aeruginosa PAO1 = format: cell-based, Pseudomonas aeruginosa
Procedure: as §1, §2, §3

S. aureus USA300 = assay: microbe, parasite or virus in culture; format: cell-based, Staphylococcus aureus; settings: for MIC S. aureus USA 300: USA300
Source text: The bacterial strains used include the Gram-positive strains Staphylococcus aureus USA300 LAC, S. epidermidis 1457, and Bacillus subtilis 168, as well as the Gram-negative isolates Escherichia coli K12 and Acinetobacter baumannii B2367-12. Additional, drug resistance strains include Gram-positive Enterococcus faecium V286-17 (VRE) and S. aureus M838-17 (MRSA) and Gram-negative E. coli E423-17, E. coli E416-17 (ampC), and P. aeruginosa E411-17. Bacteria were cultivated in tryptic soy broth (TSB) (BD Bioscience, MD).
as §1, §2, §3

E. coli ATCC 25922 = format: cell-based, Escherichia coli; settings: ATCC 25922
Procedure: as §1, §3

SMILES	MIC K. pneumoniae (K. pneumoniae ATCC 13883) [µM]	MIC P. aeruginosa PAO1 (P. aeruginosa PAO1) [µM]	MIC S. aureus USA 300 (S. aureus USA300) [µM]	MIC E. coli ATCC 25922 (E. coli ATCC 25922) [µM]	MIC K. pneumonia ATCC 13883 (K. pneumoniae ATCC 13883) [µM]	HL50 [1] [µM]	Activity against Pseudomonas aeruginosa PAO1 (P. aeruginosa PAO1)	Antimicrobial activity (S. aureus USA300; at 25 μM)
CC(C)C[C@H](NC(=O)[C@H](CC(C)C)NC(=O)[C@H](CCCCN)NC(=O)CNC(=O)[C@H](CC(C)C)NC(=O)[C@H](C)NC(=O)[C@H](CCCCN)NC(=O)[C@H](CC(C)C)NC(=O)[C@H](C)NC(=O)[C@H](CO)NC(=O)[C@H](CC(C)C)NC(=O)[C@H](CC(C)C)NC(=O)CN)C(N)=O [DFT514, GLLSALKALGKLL] (H-GLLSALKALGKLL-NH2; N-terminus assumed)	3.1 (≈ 4.02 µg/mL)	>25	1.56 (≈ 2.02 µg/mL)	3.1 (≈ 4.02 µg/mL)		36		
CC(C)C[C@H](NC(=O)[C@H](C)NC(=O)[C@H](CCCCN)NC(=O)CNC(=O)[C@H](CC(C)C)NC(=O)[C@H](C)NC(=O)[C@H](CCCCN)NC(=O)[C@H](CC(C)C)NC(=O)[C@H](C)NC(=O)[C@H](CO)NC(=O)[C@H](CC(C)C)NC(=O)[C@H](C)NC(=O)CN)C(N)=O [DFT530, GALSALKALGKAL] (H-GALSALKALGKAL-NH2; N-terminus assumed)	>25	>25	>25	>25		>100		inactive
CC(C)C[C@H](NC(=O)[C@H](CC(C)C)NC(=O)[C@H](CCCN)NC(=O)CNC(=O)[C@H](CC(C)C)NC(=O)[C@H](C)NC(=O)[C@H](CCCN)NC(=O)[C@H](CC(C)C)NC(=O)[C@H](C)NC(=O)[C@H](CO)NC(=O)[C@H](CC(C)C)NC(=O)[C@H](CC(C)C)NC(=O)CN)C(N)=O [DFT516, GLLSALOALGOLL] (H-GLLSAL[Orn]ALG[Orn]LL-NH2; N-terminus assumed)	3.1 (≈ 3.93 µg/mL)	>25	1.56 (≈ 1.98 µg/mL)	3.1 to 6.25		36		
CC(C)C[C@H](NC(=O)[C@H](CC(C)C)NC(=O)[C@H](CCCCN)NC(=O)CNC(=O)[C@H](CC(C)C)NC(=O)[C@H](CO)NC(=O)[C@H](CO)NC(=O)[C@H](CC(C)C)NC(=O)CN)C(N)=O [DFT526, GL-S--SL-GKLL] (H-GLSSLGKLL-NH2; N-terminus and C-terminus assumed)		>25	>25	>25	>25	>300		
CC(C)C[C@H](NC(=O)[C@H](CC(C)C)NC(=O)[C@H](CCCCN)NC(=O)CNC(=O)[C@H](CC(C)C)NC(=O)[C@H](CO)NC(=O)[C@H](CO)NC(=O)[C@H](CC(C)C)NC(=O)[C@H](CC(C)C)NC(=O)CN)C(N)=O [DFT525, GLLS--SL-GKLL] (H-GLLSSLGKLL-NH2; N-terminus and C-terminus assumed)		>25	>25	>25	>25	>300		
CC[C@H](C)[C@H](NC(=O)[C@H](CCCNC(=N)N)NC(=O)[C@H](CCCNC(=N)N)NC(=O)[C@H](CC(C)C)NC(=O)[C@H](Cc1c[nH]c2ccccc12)NC(=O)[C@H](Cc1c[nH]c2ccccc12)NC(=O)[C@@H](N)Cc1c[nH]c2ccccc12)C(=O)N[C@@H](CCCNC(=N)N)C(N)=O [WW305, WWWLRRIR] (H-WWWLRRIR-NH2; N-terminus and C-terminus assumed)		12.5 (≈ 15.9 µg/mL)			>25	>200		
CC[C@H](C)[C@H](NC(=O)[C@H](CCCNC(=N)N)NC(=O)[C@H](CCCNC(=N)N)NC(=O)[C@H](CCCNC(=N)N)NC(=O)[C@H](Cc1c[nH]c2ccccc12)NC(=O)[C@H](Cc1c[nH]c2ccccc12)NC(=O)[C@@H](N)Cc1c[nH]c2ccccc12)C(=O)N[C@@H](Cc1c[nH]c2ccccc12)C(N)=O [WW303, WWWRRRIW] (H-WWWRRRIW-NH2; N-terminus and C-terminus assumed)		25 to 50			>25	>200		

Second part, led by results:

MIC K. pneumoniae (K. pneumoniae ATCC 13883) [µM]	MIC P. aeruginosa PAO1 (P. aeruginosa PAO1) [µM]	MIC S. aureus USA 300 (S. aureus USA300) [µM]	MIC E. coli ATCC 25922 (E. coli ATCC 25922) [µM]	MIC K. pneumonia ATCC 13883 (K. pneumoniae ATCC 13883) [µM]	SMILES	HL50 [1] [µM]	Activity against Pseudomonas aeruginosa PAO1 (P. aeruginosa PAO1)	Antimicrobial activity (S. aureus USA300; at 25 μM)
6.2 (≈ 8.04 µg/mL)	12.5 (≈ 16.2 µg/mL)	0.78 (≈ 1.01 µg/mL)	3.1 (≈ 4.02 µg/mL)		CC(C)C[C@H](NC(=O)[C@H](CC(C)C)NC(=O)[C@H](CCCCN)NC(=O)CNC(=O)[C@H](CC(C)C)NC(=O)[C@H](CC(C)C)NC(=O)[C@H](CO)NC(=O)[C@H](CC(C)C)NC(=O)[C@H](CC(C)C)NC(=O)[C@H](CO)NC(=O)[C@H](CC(C)C)NC(=O)[C@H](C)NC(=O)CN)C(N)=O [DFT506, GALSLLSLLGKLL] (H-GALSLLSLLGKLL-NH2; N-terminus assumed)	4	active	
3.1 (≈ 3.97 µg/mL)	>25	1.56 (≈ 2 µg/mL)	3.1 (≈ 3.97 µg/mL)		CC(C)C[C@H](NC(=O)[C@H](CC(C)C)NC(=O)[C@H](CCCCN)NC(=O)CNC(=O)[C@H](CC(C)C)NC(=O)[C@H](C)NC(=O)[C@H](CCCN)NC(=O)[C@H](CC(C)C)NC(=O)[C@H](C)NC(=O)[C@H](CO)NC(=O)[C@H](CC(C)C)NC(=O)[C@H](CC(C)C)NC(=O)CN)C(N)=O [DFT515, GLLSALOALGKLL] (H-GLLSAL[Orn]ALGKLL-NH2; N-terminus assumed)	36		
3.1 (≈ 4.02 µg/mL)	>25	0.78 (≈ 1.01 µg/mL)	3.1 (≈ 4.02 µg/mL)		CC(C)C[C@H](NC(=O)[C@H](CC(C)C)NC(=O)[C@H](CCCCN)NC(=O)CNC(=O)[C@H](CC(C)C)NC(=O)[C@H](CC(C)C)NC(=O)[C@H](CO)NC(=O)[C@H](CC(C)C)NC(=O)[C@H](C)NC(=O)[C@H](CO)NC(=O)[C@H](CC(C)C)NC(=O)[C@H](CC(C)C)NC(=O)CN)C(N)=O [DFT508, GLLSALSLLGKLL] (H-GLLSALSLLGKLL-NH2; N-terminus assumed)	6		
>25	>25	1.56 (≈ 2.02 µg/mL)	>25		CC(C)C[C@H](NC(=O)[C@H](CC(C)C)NC(=O)[C@H](CCCCN)NC(=O)CNC(=O)[C@H](CC(C)C)NC(=O)[C@H](C)NC(=O)[C@H](CO)NC(=O)[C@H](CC(C)C)NC(=O)[C@H](CC(C)C)NC(=O)[C@H](CO)NC(=O)[C@H](CC(C)C)NC(=O)[C@H](CC(C)C)NC(=O)CN)C(N)=O [DFT510, GLLSLLSALGKLL] (H-GLLSLLSALGKLL-NH2; N-terminus assumed)	19		
3.1 (≈ 4.02 µg/mL)	6.2 to 12.5	0.78 (≈ 1.01 µg/mL)	1.5 to 3.1		CC(C)C[C@H](NC(=O)[C@H](CC(C)C)NC(=O)[C@H](CCCCN)NC(=O)CNC(=O)[C@H](CC(C)C)NC(=O)[C@H](CC(C)C)NC(=O)[C@H](CO)NC(=O)[C@H](C)NC(=O)[C@H](CC(C)C)NC(=O)[C@H](CO)NC(=O)[C@H](CC(C)C)NC(=O)[C@H](CC(C)C)NC(=O)CN)C(N)=O [DFT509, GLLSLASLLGKLL] (H-GLLSLASLLGKLL-NH2; N-terminus assumed)	4		
